The values that follow come from paper PMC12392461, “Beyond Estrogenicity: A Comparative Assessment of Bisphenol A and Its Alternatives in In Vitro Assays Questions Safety of Replacements” (Environmental Science & Technology, 2025).

The test system of data set [1] is HEK293H, HEK293T, H4IIe, MCF7 and SH-SY5Y cells. To be noted: for cytotoxicity,median REPBPA,IC10: median IC10 relative to BPA; for IC10,Median (M): median cytotoxicity of all cell lines; for IC10, median: median cytotoxicity over all cell lines. Here is the method: Cell culture conditions and bioassay protocols including response detection are provided in Text S2.1–2.4 and Table S3. − Cell viability was determined from cell confluency using an IncuCyte S3 Live-Cell Analysis System (Sartorius AG, Essen, Germany) before and after exposure, except for SH-SY5Y cells (live–dead staining with Nuclear Green LcS1 and propidium iodide, Abcam, UK). For metabolic activation experiments, cell viability was assessed using the ToxBLAzer DualScreen Kit (Thermo Fisher Scientific) to capture the remaining toxicity in ERα-UAS-bla GripTite after treatment with the aCYP catalyst (details in Text S2.4).
For ARE, the concentration that triggered an induction ratio of 1.5 (ECIR1.5) was used as the benchmark value, as detailed in Text S2.5. IC10 values also served as a threshold for data analysis in all assays; only concentrations below IC10 were considered when deriving EC10 or ECIR1.5.
TR indicates whether the cytotoxicity is triggered by specific toxicity mechanisms (TR ≥ 10) or not (0.1< TR< 10). 3 TR=IC10,baseline/IC10 We measured the cytotoxicity of BPA and its alternatives in HEK293H (PPARγ), HEK293T (ERα), H4IIe (AhR CALUX), MCF7 (ARE/MMP), and differentiated SH-SY5Y cells (Table S6). […]
medium, supplemented with 2% B-27 Supplement and 2 mM GlutaMAX Supplement. SH - SY5Y cells were differentiated with 10 µM all-trans retinoic acid prior to the assay.
S2.2: Cell Seeding and Incubation. For all bioassays, cell suspensions in the respective assay medium were dispensed into each well of 384-well plates using a MultiFlo Dispenser (Biotek, (now Agilent), Winooski, VT, U.S.). After seeding, the plates were incubated at 37° C and 5% CO₂ for […]. The final cell densities and plate types were as follows: Black poly-D-lysine […]
6500 cells/well, ERα: 5000 cells/well. White 384-well plates with a clear bottom (Product No.
NYC, U.S.) for AhR: 3250 cells/well. Black Collagen I coated plates were used (Product No.
S2.3: Chemical Dosing and Assay Analysis Procedures. The dosing procedure and high-throughput assay workflow have been described in detail before. 9 The dosing concentrations […]
Stock solutions were then either added directly to the respective cell culture medium or evaporated under nitrogen, followed by replenishment with fresh medium. The final solvent content in each well was kept below 1% for methanol, 0% for acetonitrile.
Dosing plates were prepared as 11 -step serial dilutions using a Hamilton Microlab Star robotic system (Hamilton, Bonaduz, Switzerland), and chemicals were dosed in duplicates by transferring 10 μL twice from the dosing plates to the cell plates . After quantifying cell confluency as described in S2. 4., the exposed cells were incubated at 37° C and 5% CO₂ for an additional 24 h. All chemicals were tested in all assays with at least three independent […]
S2.4: Cell Viability Measurement s and bioanalytical protocols . The confluency as a measure of cell viability was determined with an IncuCyte S3 Live -Cell Analysis System (Sartorius AG, Essen, Germany). With this method the confluency of cells in a microscopy image are normalized to control wells without cells and compared before and after 24 hours of exposure.
This method has been described previously 13. Cell viability of SH-SY5Y cells was measured […]
propidium iodide (PI, Abcam, Cambridge, U.K.).14 Nuclear Green LCS1 is a membrane-permeable dye that stains the nuclei of all cells, whereas PI only enters cells with compromised membrane integrity (non-viable cells). After staining, live cells show green nuclei without red fluorescence, while dead cells display both green and red nuclear fluorescence due to PI […]
intercalation. Cell viability was calculated as the proportion of green-only nuclei relative to the […]
For experiments with the preceding aCYP activation, ERα cell viability was additionally calculated from the readout of the ToxBLAzer reagent. The ToxBLAzer assay was conducted following the manufacturer's instructions (Thermo Fisher, Waltham, MA, U.S.).13 Fluorescence

For another data set, the system named is Tox21 assays. Nature of the data set: Re-evaluated Tox21 data (Adamovsky et al.), REPBPA and SRbaseline.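 As to all read-outs here: published Tox21 results reanalysed with a revised model predicting baseline toxicity.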 To be noted: for SRbaseline: Specificity Ratio.
The nature of data set [2]: Octanol-water partition constant (log Kow) measurement, Sirius T3 potentiometric log P. Format: physicochemical. The following applies: experimental, this study. Here is the method: Physicochemical properties provide input parameters for the baseline toxicity model. Acidity constants (pK a) and octanol–water partition constants of the neutral species (K ow) were measured with a Sirius T instrument from Pion Inc. (Sussex, UK) (Text S1.2 and Table S1). A detailed description of the pK a and K ow measurements can be found in literature. , […]
S1.2: pKa and log Kow measurements […]
titrator (Pion Inc., Sussex, U.K.). […]
UV absorbance. For log Kow measurement, approximately 1 mg of test chemical was added to a sample vial and the measurement was done automatically via the potentiometric log P protocol. Briefly, each compound is titrated thrice in an immiscible biphasic system of octanol and phosphate buffer solution and pH is continuously recorded. The shift in p Ka -values was used to estimate the log Kow values.2, 3 Data processing was performed with Sirius T3 Refine software (version 2.0.0.0.), and the final p Ka and log Kow values were calculated as the average of three titrations. To ensure reproducibility, measurements were conducted on at least two

The subject of the next data set is ERα. The following applies: ref Pelch et al 2019; cited from earlier work.
Where [3] appears, read: TOX21_PPARg_BLA_antagonist_ratio.
Where [4] appears, read: Tox21Luc, ref Adamovsky et al. 2024.
Where [5] appears, read: TOX21_AR_LUC_MDAKB2_Antagonist_0,5nM_R1881, Relative Effect Potency.
Where [6] appears, read: TOX21_AR_LUC_MDAKB2_Antagonist_0,5nM_R1881.

Structures are written as SMILES.

Description for Tox21 assays: We also reanalyzed the Tox21 data of Adamovsky et al. with the updated baseline toxicity prediction model (Table S2).

On to `Oc1ccc(C2(c3ccc(O)cc3)CCCCC2)cc1` [BPZ, 1,1'-Bis(4-hydroxyphenyl)cyclohexane], for which, in data set [1], the “cytotoxicity,median REPBPA,IC10” value was 1.33; the “IC10,Median (M)” value is recorded as 5.28 × 10^–5 M; the “IC10, median” value was 52.8 µM. In addition, in the data set with Tox21 assays (TOX21_CAR_Antagonist, Relative Effect Potency), the REPBPA was 1.19. Besides, the SRbaseline with Tox21 assays (TOX21_CAR_Antagonist) amounted to 59.87. Besides, the SRbaseline in the data set on Tox21 assays (setting [3]) was 14.87. The REPBPA in the data set on Tox21 assays (setting [4]) came to 2.90E+00. For the same compound, the “log Kow used” value in data set [2] was 4.64.

Consider `CC(C)(c1ccc(O)c(-c2ccccc2)c1)c1ccc(O)c(-c2ccccc2)c1` [BPPH, 2,2-Bis(2-hydroxy-5-biphenylyl)propane], for which, in data set [1], the “cytotoxicity,median REPBPA,IC10” value is on record as 8.72; the “IC10,Median (M)” value is 8.02 × 10^–6 M; the “IC10, median” value stood at 8.02 µM. Also, the Efficacy % with ERα is on record as 27.00%.

`CC(C)(c1ccc(OCC2CO2)cc1)c1ccc(OCC2CO2)cc1` (stereo not shown) [BADGE, Bisphenol A diglycidyl ether]: in data set [1], the “cytotoxicity,median REPBPA,IC10” value is 1.82; the “IC10,Median (M)” value is 3.85 × 10^–5 M; the “IC10, median” value worked out at 38.5 µM.

For `CC(C)(c1cc(Br)c(O)c(Br)c1)c1cc(Br)c(O)c(Br)c1` [TBBPA, 3,3',5,5'-Tetrabromobisphenol A], the “log Kow used” value in data set [2] is 5.91.

As to `Cc1cc(Cc2cc(C)c(O)c(C)c2)cc(C)c1O` [TMBPF, Bis(3,5-dimethyl-4-hydroxyphenyl)methane], in data set [1], the “cytotoxicity,median REPBPA,IC10” value worked out at 5.51; the “IC10,Median (M)” value is 1.27 × 10^–5 M; the “IC10, median” value was 12.7 µM.

Turning to `Oc1ccc(Sc2ccc(O)cc2)cc1` [BPT, 4,4'-Thiodiphenol], in data set [1], the “cytotoxicity,median REPBPA,IC10” value is reported as 0.74; the “IC10,Median (M)” value is 9.51 × 10^–5 M; the “IC10, median” value turned out to be 95.1 µM. The same compound yielded an REPBPA with Tox21 assays (setting [5]) of 1.69. For the same compound, the SRbaseline with Tox21 assays (setting [6]) came out at 66.82. In addition, in the data set with Tox21 assays (setting [3]), the SRbaseline is reported as 35.93. Also, the REPBPA with Tox21 assays (setting [4]) was found to be 8.32E-01. The “log Kow used” value in data set [2] is reported as 3.29.

With `CC1(C)[C@H](O)C(C)(C)[C@H]1O` [t-TMCD, trans-2,2,4,4-Tetramethyl-1,3-cyclobutanediol], in data set [1], the “cytotoxicity,median REPBPA,IC10” value is reported as 0.00783; the “IC10,Median (M)” value is 8.94 × 10^–3 M; the “IC10, median” value was 8940 µM.

As to `CC(C)(c1cc(Cl)c(O)c(Cl)c1)c1cc(Cl)c(O)c(Cl)c1` [TCBPA, 2,2',6,6'-Tetrachlorobisphenol A], the “cytotoxicity,median REPBPA,IC10” value in data set [1] is on record as 0.89. The “IC10,Median (M)” value in data set [1] is on record as 7.84 × 10^–5 M. Moreover, in data set [1], the “IC10, median” value was determined as 78.4 µM. Moreover, the REPBPA worked out at 6.78 in the data set on Tox21 assays (ATG_PPARg_TRANS_up, Relative Effect Potency) and 3.23 in the data set on Tox21 assays (ATG_hPPARg_XSP2_up, Relative Effect Potency). Besides, the SRbaseline is 37.70 with Tox21 assays (ATG_PPARg_TRANS_up), 22.19 in the data set with Tox21 assays (ATG_hPPARg_XSP2_up) and 22.07 in the data set on Tox21 assays (setting [3]).

Consider `O=C(OCc1ccccc1)c1ccc(O)cc1` [BzPB, Benzyl 4-hydroxybenzoate], for which, in data set [1], the “cytotoxicity,median REPBPA,IC10” value came out at 0.53; the “IC10,Median (M)” value was 1.32 × 10^–4 M; the “IC10, median” value came out at 132 µM. Moreover, in data set [2], the “log Kow used” value is recorded as 3.30. In the data set with ERα, the Efficacy % was 19.70%.

`CC(c1ccc(O)cc1)c1ccc(O)cc1` [BPE, 4,4′-Ethylidenbisphenol]: the “cytotoxicity,median REPBPA,IC10” value in data set [1] was 0.88. Moreover, in data set [1], the “IC10,Median (M)” value is recorded as 7.91 × 10^–5 M. Besides, the “IC10, median” value in data set [1] was determined as 79.1 µM. Besides, the REPBPA in the data set with Tox21 assays (setting [5]) is 1.49; in the data set on Tox21 assays (TOX21_CAR_Agonist, Relative Effect Potency), 0.13; in the data set on Tox21 assays (Tox21BLA, ref Adamovsky et al. 2024), 4.35E-01; with Tox21 assays (setting [4]) it was 6.37E-01. In addition, the SRbaseline was 76.62 with Tox21 assays (setting [6]), 11.95 in the data set on Tox21 assays (TOX21_CAR_Agonist) and 12.24 in the data set with Tox21 assays (setting [3]). Also, the “log Kow used” value in data set [2] is on record as 4.05.

Consider `COC(=O)C(c1ccc(O)cc1)c1ccc(O)cc1` [Bz, Methyl bis(4-hydroxyphenyl)acetate], for which, in data set [1], the “cytotoxicity,median REPBPA,IC10” value is reported as 0.19; the “IC10,Median (M)” value was 3.73 × 10^–4 M; the “IC10, median” value is 373 µM. The “log Kow used” value in data set [2] came out at 2.06.

On to `CC(C)c1cc(C(C)(C)c2ccc(O)c(C(C)C)c2)ccc1O` [BPG, 2,2-Bis(4-hydroxy-3-isopropylphenyl)propane], for which, in data set [1], the “cytotoxicity,median REPBPA,IC10” value amounted to 8.93; the “IC10,Median (M)” value is 7.84 × 10^–6 M; the “IC10, median” value came to 7.84 µM.

On to `CC1(C)C(O)C(C)(C)C1O` (racemic) [r-TMCD, 2,2,4,4-Tetramethyl-1,3-cyclobutanediol (racemate)], for which, in data set [1], the “cytotoxicity,median REPBPA,IC10” value was 0.00844; the “IC10,Median (M)” value is given as 8.29 × 10^–3 M; the “IC10, median” value stood at 8290 µM.
